Measured values taken from patent US12428455B2, “Dominant negative CEBPB and CEBPD proteins and methods of use for decreasing viability of neoplastic cells” (The Trustees of Columbia University in the City of New York, priority 2018, dated 2025).
No end group written: not given here.

System: A375 cells
Experiment: A375 subcutaneous tumors, 20 mg/kg survival study
Type: in vivo, NCR nude mice
Conditions: 20 mg/kg intraperitoneally
Description: A375 cells were subcutaneously implanted in the flanks of NCR nude mice. Once tumors had formed, the animals were treated intraperitoneally with 20 mg/kg of CP-dn-CEBPD or vehicle as indicated in the schema shown in FIG. 39A. Animal weight was monitored (FIG. 39B). Tumor sizes were measured and volumes calculated on each day of injection. […] FIG. 39D compares calculated individual and mean tumor volumes for vehicle and CP-dn-CEBPD treated animals on day 28.

Sequence: RQIKIWFQNRRMKWKKLVELSAENEKLHQRVEQLTRDLAGLRQFFK [CP-DN-CEBPD]
- side effects (animal weight monitored): no apparent side effects
- animal survival (endpoint morbid behavior or tumor >1000 mm^3): increased animal survival
- tumor growth (calculated tumor volumes) (to day 28): suppressed tumor growth
